{"source": "patent US20240132463A1", "about": "“SUBSTITUTED N-(2-(2,6-DIOXOPIPERIDIN-3-YL)-1,3-DIOXOISOINDOLIN-5-YL)ARYLSULFONAMIDE ANALOGS AS MODULATORS OF CEREBLON PROTEIN” (ST. JUDE CHILDREN'S RESEARCH HOSPITAL, INC., priority 2020, published 2024)", "assay": "Liver microsomes stability assay (mouse)", "type": "in vitro ADME", "description": "The liver microsome stability assay was carried as previously described (Refs. 40-41). NADPH regenerating agent solutions A and B and mouse liver microsomes (CD-1) were obtained from BD Gentest (Woburn, MA). Pooled human liver microsomes were purchased from XenoTech (Lenexa, KS). Ninety-six deep well plates were obtained from Midsci (St. Louis, MO). Ninety-six analytical plates were obtained from Corning Incorporated (Acton, MA). Sample preparation for microsomal stability was modified from Di's publications. A set of incubation times of 0, 15, 30, 60, 120, and 240 min were used. DMSO stock solutions of test compounds and verapamil (system control) were prepared at 10 mM concentration. Concentrated human or mouse liver microsomes (20 mg/mL protein concentration) and 0.5 M EDTA were diluted into 0.1 M potassium phosphate buffer (pH 7.4) and mixed well, followed by compounds solutions being spiked. This solution was mixed and 90 μL was transferred to 6 time points plates (each in triplicate wells). For the time 0 h plate, 3 fold (v:v) cold acetonitrile with internal standard (40 ng/ml warfarin) was added to each well, followed by addition of NADPH regenerating agent (mixing NADPH solutions A and B in PBS, pH7.4) and no incubation. […] The metabolic stability was evaluated via the half-life from least-squares fit of the multiple time points based on first-order kinetics."}
{"compound": "O=C1CCC(N2C(=O)c3ccc(NS(=O)(=O)c4ccccc4OC(F)(F)F)cc3C2=O)C(=O)N1", "note": "(centres unmarked) [Compound 1, N-(2-(2,6-dioxopiperidin-3-yl)-1,3-dioxoisoindolin-5-yl)-2-(trifluoromethoxy)benzenesulfonamide]", "values": [{"measurement": "intrinsic clearance Clint", "result": 12, "unit": "mL/min/kg"}, {"measurement": "liver microsomes t1/2", "result": 4.7, "unit": "h"}]}
